Reference: ChEMBL document CHEMBL5036307, “Antimalarial Quinacrine and Chloroquine Lose Their Activity by Decreasing Cationic Amphiphilic Structure with a Slight Decrease in pH” (J Med Chem, 2021)
Calls of active or inactive are those of the source. The rule behind the calls is not given here.

What was measured:
[1] = tested on: Saccharomyces cerevisiae; assay: Antimicrobial activity against Saccharomyces cerevisiae BY4741 assessed as inhibition of microbial growth at pH 8 in presence of glucose measured after 48 hrs by visual analysis; format: functional
[2] = tested on: Saccharomyces cerevisiae; assay: Ratio of antimicrobial activity against Saccharomyces cerevisiae BY4741 at pH 7 to antimicrobial activity against Saccharomyces cerevisiae BY4741 at pH 8; format: functional
[3] = tested on: Saccharomyces cerevisiae; assay: Antimicrobial activity against Saccharomyces cerevisiae BY4741 assessed as inhibition of microbial growth at 60 mM at pH 6 in presence of glucose measured after 48 hrs by visual analysis; format: functional, organism-based
[4] = tested on: Saccharomyces cerevisiae; assay: Antimicrobial activity against Saccharomyces cerevisiae BY4741 assessed as inhibition of microbial growth at pH 7 in presence of glucose measured after 48 hrs by visual analysis; format: functional
[5] = Inhibition HXT2 in Saccharomyces cerevisiae using 2DG as substrate assessed as reduction in 2DG uptake at pH 7.5 preincubated for 10 min followed by substrate addition and measured after 10 min by glucose uptake-Glo assay
[6] = tested on: Saccharomyces cerevisiae; assay: Inhibition HXT2 in Saccharomyces cerevisiae using 2DG as substrate assessed as reduction in 2DG uptake by measuring Km at 75 uM at pH 7.5 by Michaelis-Menten analysis (Rvb= 0.76 +/- 0.03 mM)
[7] = tested on: Saccharomyces cerevisiae; assay: Inhibition HXT2 in Saccharomyces cerevisiae using 2DG as substrate assessed as reduction in 2DG uptake by measuring decrease in Vmax at 125 uM at pH 7.5 by Michaelis-Menten analysis (Rvb= 211 +/- 9 nmol/min)
[8] = tested on: Saccharomyces cerevisiae; assay: Inhibition HXT2 in Saccharomyces cerevisiae using 2DG as substrate assessed as reduction in 2DG uptake by measuring Km at 125 uM at pH 7.5 by Michaelis-Menten analysis (Rvb= 0.76 +/- 0.03 mM)
[9] = tested on: Saccharomyces cerevisiae; assay: Ratio of antimicrobial activity against Saccharomyces cerevisiae BY4741 at pH 6 to antimicrobial activity against Saccharomyces cerevisiae BY4741 at pH 8; format: functional
[10] = Inhibition HXT2 in Saccharomyces cerevisiae using 2DG as substrate assessed as inhibition of 2DG uptake at pH 6 preincubated for 10 min followed by substrate addition and measured after 10 min by glucose uptake-Glo assay
[11] = tested on: Saccharomyces cerevisiae; assay: Antimicrobial activity against Saccharomyces cerevisiae BY4741 assessed as inhibition of microbial growth at pH 6 in presence of glucose measured after 48 hrs by visual analysis; format: functional
[12] = tested on: Saccharomyces cerevisiae; assay: Inhibition HXT2 in Saccharomyces cerevisiae using 2DG as substrate assessed as reduction in 2DG uptake by measuring decrease in Vmax at 75 uM at pH 7.5 by Michaelis-Menten analysis (Rvb= 211 +/- 9 nmol/min)
[13] = tested on: Saccharomyces cerevisiae; assay: Antimicrobial activity against saccharomyces cerevisiae BY4741 assessed as inhibition of translation initiation by measuring polysme/monosome ratio at 1.5 mM at pH 7.5 incubated for 30 mins in presence of 2% glucose by polysome analysis (Rvb= 1.74); format: functional; conditions: 0.5 h
[14] = tested on: Saccharomyces cerevisiae BY4741; assay: Inhibition of actin polarization in Saccharomyces cerevisiae BY4741 at pH 6 incubated for 30 mins in presence of 2% glucose by rhodamine phalloidin staining based confocal microscopic analysis
[15] = tested on: Saccharomyces cerevisiae; assay: Inhibition of endocytosis in Saccharomyces cerevisiae BY4741 from plasma to vacuoles assessed as formation of discrete granules at 25 mM incubated for 2 hrs by FM4-64 staining based analysis; format: functional, organism-based
[16] = tested on: Cell membrane; assay: Induction of membrane disruption in Saccharomyces cerevisiae BY4741 at 50 mM incubated for 2 hrs by FM4-64 staining based analysis; format: subcellular
[17] = tested on: Cell membrane; assay: Induction of membrane disruption in Saccharomyces cerevisiae BY4741 assessed as cell lysis by measuring increase in extracellular ATP level at pH 7.5 in presence of 2% glucose incubated for 30 mins
[18] = tested on: Saccharomyces cerevisiae; assay: Antimicrobial activity against Saccharomyces cerevisiae BY4741 assessed as inhibition of microbial growth at 50 mM at pH 5 in presence of glucose measured after 48 hrs by visual analysis; format: functional, organism-based
[19] = tested on: Saccharomyces cerevisiae; assay: Inhibition HXT2 in Saccharomyces cerevisiae using 2DG as substrate assessed as reduction in 2DG uptake by measuring decrease in Vmax at 0.6 mM at pH 7.5 by Michaelis-Menten analysis (Rvb= 208 +/- 7 nmol/min)
[20] = Inhibition of actin polarization in Saccharomyces cerevisiae BY4741 at pH 7.5 incubated for 30 mins in presence of 8% glucose by rhodamine phalloidin staining based confocal microscopic analysis
[21] = tested on: Saccharomyces cerevisiae; assay: Inhibition HXT2 in Saccharomyces cerevisiae using 2DG as substrate assessed as reduction in 2DG uptake by measuring decrease in Vmax at 0.2 mM at pH 7.5 by Michaelis-Menten analysis (Rvb= 208 +/- 7 nmol/min)
[22] = tested on: Cell membrane; assay: Induction of membrane disruption in Saccharomyces cerevisiae BY4741 assessed as cell lysis by measuring increase in extracellular ATP level at pH 7.5 in presence of 8% glucose incubated for 30 mins
[23] = tested on: Saccharomyces cerevisiae; assay: Inhibition HXT2 in Saccharomyces cerevisiae using 2DG as substrate assessed as reduction in 2DG uptake by measuring Km at 0.6 mM at pH 7.5 by Michaelis-Menten analysis (Rvb= 0.76 +/- 0.08 mM)
[24] = tested on: Saccharomyces cerevisiae; assay: Inhibition HXT2 in Saccharomyces cerevisiae using 2DG as substrate assessed as reduction in 2DG uptake by measuring Km at 0.2 mM at pH 7.5 by Michaelis-Menten analysis (Rvb=0.76 +/- 0.08 mM)
[25] = Inhibition of actin polarization in Saccharomyces cerevisiae BY4741 at pH 7.5 incubated for 30 mins in presence of 2% glucose by rhodamine phalloidin staining based confocal microscopic analysis
[26] = tested on: Saccharomyces cerevisiae; assay: Antimicrobial activity against saccharomyces cerevisiae BY4741 assessed as inhibition of translation initiation by measuring polysme/monosome ratio at 1.5 mM at pH 7.5 incubated for 30 mins in presence of 8% glucose by polysome analysis (Rvb= 1.94); format: functional; conditions: 0.5 h

With `CCN(CC)CCCC(C)Nc1ccnc2cc(Cl)ccc12` (stereo unspecified) [CHLOROQUINE] the MIC [1] was 520 µM, the Ratio [2] was 30 and the Activity [3] was “inactive”. The MIC [4] was 15000 µM.

`CN(C)CCCN1c2ccccc2Sc2ccc(Cl)cc21` [CHLORPROMAZINE] showed an MIC [1] of 15 µM, an IC50 [5] of 115 µM and a Km [6] of 630 µM. For the same molecule, the Vmax [7] was 63 nmol/min, the Km [8] was 710 µM and the Ratio [9] was 16. It also gave an IC50 [10] of 259 µM, an MIC [11] of 250 µM and a Ratio [2] of 2. It also gave a Vmax [12] of 126 nmol/min and an MIC [4] of 31 µM.

For `CCN(CC)CCCC(C)Nc1c2ccc(Cl)cc2nc2ccc(OC)cc12` (stereo unspecified) [QUINACRINE], the MIC [1] was 83 µM, the Ratio [13] was 1.53 and the inhibition [14] was “inactive”. For the same molecule, the inhibition [15] was “Active”, the Activity [16] was “Active” and the IC50 [5] was 370 µM. For the same molecule, the Activity [17] was 21.6 mM, the Activity [18] was “inactive” and the Vmax [19] was 113 nmol/min. For the same molecule, the IC50 [20] was 1600 µM, the Ratio [9] was 600 and the Vmax [21] was 158 nmol/min. For the same molecule, the IC50 [10] was 3490 µM, the Activity [22] was 37 mM and the MIC [11] was 50000 µM. For the same molecule, the Ratio [2] was 30, the MIC [4] was 2.5 µM and the Km [23] was 750 µM. It also gave a Km [24] of 770 µM, an IC50 [25] of 1000 µM and a Ratio [26] of 1.69.
